Assays:
[1] = tested on: mice; experiment: Open Field testing; assay type: in vivo, mouse; settings: for Anxiolytic effects in Open Field testing: FIGS. 9A-9D
Description: Open Field testing was also performed. In carrying out this testing, individually housed male and female mice aged 8-12 weeks were used. The mice were maintained on a reverse L:D/12 p.m.: 12 a.m. cycle in a barrier facility. Food and water were available ad libitum. Testing occurred towards the end of the light cycle between 6-12 a.m. Mice were acclimated to the testing room for at least 30 minutes. The assay was performed in a custom-made Open Field Apparatus. Each chamber was a 50 by 50 cm square. The experiment was recorded and tracked by a tracking system obtained from Viewpoint.
The time and the path length in the center of the open field were determined. The center of the open field is defined as a 13.5×13.5 cm square in the geometric center of the arena. The percent of path in the center is calculated as
[formula] For each mouse, the total path length and path length for 60 minutes at 5 minute intervals was determined as a measure of locomotor activity. In addition, feces produced by each experimental animal during the test was counted. Each chamber was cleaned between individual mouse testing.
Path length for 60 minutes at 5 minute intervals was analyzed by repeat measures using SPSS software. All other parameters were compared using unpaired t-test (GraphPad Prism).

[2] = target: Norepinephrine Transporter (Human Recombinant) (Homo sapiens (Human), UniProt P23975); experiment: Norepinephrine transporter (human recombinant) binding assay, [3H]-Nisoxetine; settings: read-out: INH at 10 μM NET
Description: II: Norepinephrine Transporter (Human Recombinant) Binding Assay • This assay was carried out in accordance with the procedure described by Raisman, R, et al. Eur. Jrnl. Pharmacol. 78: 345-351 (1982) with modifications. See also, Langer, S., et al., Eur. Jrnl. Pharmacol, 72: 423-4 (1981). Tissue Preparation • 1. hrNET (Receptor Biology; RBNET) is diluted in assay buffer to 2.5 microunits/ml, so that each tube receives 0.5 microunits, or 2 microunits/ml. • NOTE: 100 microassays, add 20 mis of buffer. Binding Reaction • 1. Each tube receives the following components: • 25 ul drug or vehicle • 25 ul [^3H]-Nisoxetine • 200 ul tissue suspension. • 2. Initiate binding reaction with the addition of tissue, and incubate at room temperature for 1 hour. • 3. Terminate binding reaction by rapid filtration of tube contents onto 0.1% PEI treated GF/C filters (TopCount). • 4. Rinse the assay tubes once with ice cold 50 mM NaCl, then rapidly rinse the filters with 6×1 ml/tube of the same wash buffer. • 5. Radioactivity trapped onto the filters is assessed using liquid scintillation spectrophotometer after soaking the filters for at least 1 hour in scintillation cocktail. Materials and Reagents • 1. The receptor source is human recombinant/CHO. • 2. [^3H]-Nisoxetine, diluted to a concentration of 10 nM in assay buffer, is used as the radioligand. Thus, the final ligand concentration is 1 nM. • 3. Non specific binding is defined as that remaining in the presence of 1×10^−6M desipramine (MW=302.8) (Make fresh: in bag with dessicating rocks 1, dissolves in water 1E-3). • 4. The reference compound for the assay is desipramine. Desimpramine is run at following final concentrations: • 1×10^−10, 2×10^−10, 5×10^−10, 1×10^−9, 2×10^−9, 5×10^−9, 1×10^−8, 2×10^−8, 5×10^−8, 1×10^−7, 2×10^−7, 5×10^−7M • 5. The positive control is any of the above run at the final concentrations of: • 1×10^−9, 5×10^−9, 2×10^−8 M. • 6. The Kd for the receptor is 3 nM. Buffers

[3] = Tolerability and observable behavior changes; assay type: in vivo; settings: for Well tolerated dose: in vivo; for Duration of observable changes in behavior: occurred in minutes
[4] = tested on: male Swiss Webster mice; experiment: Time-course (8 hr) mouse locomotor activity testing; assay type: in vivo; settings: for Duration of suppression of spontaneous locomotor activity: FIGS. 6A and 6B; for ID50 (dose producing 1/2 maximal depressant activity): IP; for Planned comparisons against the vehicle group, horizontal activity counts in period of maximal depressant effect: ps<0.05
Description: A dose response study was conducted of locomotor depression induced by the compound of Example 3, according to NIDA's Medication Development Division (MDD) locomoter activity studies standard protocol. The study was conducted using 40 Digiscan locomotor activity testing chambers (40.5×40.5×30.5 cm) housed in sets of two, within sound attenuating chambers. A panel of infrared beams (16 beams) and corresponding photodetectors were located in the horizontal direction along the sides of each activity chamber. A 7.5 W incandescent light above each chamber provided dim illumination. Fans provided an 80 dB ambient noise level within the chamber. Separate groups of 8 non-habituated male Swiss Webster mice (Hsd:ND4, aged 2-3 months) were injected via the intraperitoneal (IP) route with either vehicle (2% methyl cellulose) or the compound of Example 3, above, (3, 10, 30 or 100 mg/kg) twenty minutes prior to locomotor activity testing. Just piro to placement in the apparatus, all mice received a saline injection IP. In all studies, horizontal activity (interruption of photocell beams) was measured for 1 hour within 10 minute periods. Testing was conducted with one mouse per activity chamber.
A time course/dose response study of the locomotor depression inducing effect of the compound of Example 3 was conducted, according to the same MDD locomotor activity studies time course protocol described immediately above, except that groups of 8 mice were injected with either vehicle (2% methylcellulose) or the compound of Example 3 (3, 10, 30 or 100 mg/kg), immediately prior to locomotor activity testing. Behavioral observations were recorded on each mouse at 30, 120 and 480 minutes following 100 mg/kg of the test compound. The vehicle used in this study was 2% methylcellulose.
A separate time course/dose response study of the locomotor depression inducing effect of the compound of Example 6 was also conducted, under the same conditions described above for testing of the compound of Example 3. Additional groups of 8 mice were injected with either vehicle (2% methylcellulose) or the test compound (3, 10, 30 or 100 mg/kg), immediately prior to locomotor activity testing. Behavioral observations were recorded on each mouse at 30, 120 and 480 minutes following 100 mg/kg of the test compound. The vehicle used in this study was 2% methylcellulose.
(§1) Depressant effects of 30 and 100 mg/kg occurred within 10 minutes following injection and lasted 140 to 160 minutes. The period 20-50 min was selected for analysis of dose-response data because this was the time period in which maximal suppression first appeared as a function of dose. The mean average horizontal activity counts/10 min for this 30-min period were fit to a linear function of log10 dose of the descending portion of the dose-effect curve (3 to 100 mg/kg dose range).
as §1, with “of” for “of 30 and”, “lasted” for “lasted 140 to”, “50-80” for “20-50”, “(10” for “(3”

SMILES | Locomotor activity in open field testing ([1]; 10 and 90 mg/kg, FIG. 8) | Anxiolytic effects in Open Field testing ([1]; 10 and 90 mg/kg) | Number of fecal boli in open field testing ([1]; mouse, in vivo) | inhibition at 10 µM [2] | Dosage above which subjects became lethargic [3] | Well tolerated dose [3] | Duration of observable changes in behavior [3] | Onset of depressant effects following injection ([4]; 30 and 100 mg/kg IP) | Duration of suppression of spontaneous locomotor activity [4] | ID50 (dose producing 1/2 maximal depressant activity) ([4]; period 20-50 min, 3 to 100 mg/kg dose range) | Planned comparisons against the vehicle group, horizontal activity counts in period of maximal depressant effect [4] | Lethargic effect (compared with Example 3) ([3]; higher concentrations) | Duration of depressant effects ([4]; 100 mg/kg IP) | Onset of depressant effects following injection ([4]; 100 mg/kg IP) | ID50 (dose producing 1/2 maximal depressant activity) ([4]; period 50-80 min, 10 to 100 mg/kg dose range)
Cc1ccc(C[n+]2[cH-]/c(=N\C(=O)Nc3ccccc3)on2)cc1 [Example 3, N-phenylcarbamoyl-3-(p-methyl-benzyl)-sydnonimine] | effective to reduce locomotor activity | demonstrable anxiolytic effects | no effect | 14% | above 125 kg/mg | at least 200 mg/kg | 2 to 3 h | ≤ 10 min | at least 3 hours | ~24.0 mg/kg | significant depressant effect for 30 and 100 mg/kg | – | – | – | –
O=C(/N=c1\[cH-][n+](CCCc2ccccc2)no1)Nc1ccccc1 [Example 6, N-phenylcarbamoyl-3-(phenylpropyl)-sydnonimine] | – | induces anxiolytic effects | – | 1.44% | – | at least 200 mg/kg | 2 to 3 h | – | at least 3 hours | – | significant depressant effect for 100 mg/kg | this effect was reduced | 160 min | ≤ 10 min | ~30.2 mg/kg

Source: patent US9604945B2, “Sydnonimines-specific dopamine reuptake inhibitors and their use in treating dopamine related disorders” (priority 2007, dated 2017)
